Laboratory results taken from PMC9120017, “Inhibition mechanism of the chloride channel TMEM16A by the pore blocker 1PBC” (Nature Communications, 2022).
Read-outs that look alike come from different tables or passages of the source.

Target: T1, mouse TMEM16A mutant I551A (Mus musculus, UniProt Q8BHY3, I551A)
T1 construct: expressed in transfected cells; host or cells: HEK293T
T1 sequence (Q8BHY3 1-960 I551A): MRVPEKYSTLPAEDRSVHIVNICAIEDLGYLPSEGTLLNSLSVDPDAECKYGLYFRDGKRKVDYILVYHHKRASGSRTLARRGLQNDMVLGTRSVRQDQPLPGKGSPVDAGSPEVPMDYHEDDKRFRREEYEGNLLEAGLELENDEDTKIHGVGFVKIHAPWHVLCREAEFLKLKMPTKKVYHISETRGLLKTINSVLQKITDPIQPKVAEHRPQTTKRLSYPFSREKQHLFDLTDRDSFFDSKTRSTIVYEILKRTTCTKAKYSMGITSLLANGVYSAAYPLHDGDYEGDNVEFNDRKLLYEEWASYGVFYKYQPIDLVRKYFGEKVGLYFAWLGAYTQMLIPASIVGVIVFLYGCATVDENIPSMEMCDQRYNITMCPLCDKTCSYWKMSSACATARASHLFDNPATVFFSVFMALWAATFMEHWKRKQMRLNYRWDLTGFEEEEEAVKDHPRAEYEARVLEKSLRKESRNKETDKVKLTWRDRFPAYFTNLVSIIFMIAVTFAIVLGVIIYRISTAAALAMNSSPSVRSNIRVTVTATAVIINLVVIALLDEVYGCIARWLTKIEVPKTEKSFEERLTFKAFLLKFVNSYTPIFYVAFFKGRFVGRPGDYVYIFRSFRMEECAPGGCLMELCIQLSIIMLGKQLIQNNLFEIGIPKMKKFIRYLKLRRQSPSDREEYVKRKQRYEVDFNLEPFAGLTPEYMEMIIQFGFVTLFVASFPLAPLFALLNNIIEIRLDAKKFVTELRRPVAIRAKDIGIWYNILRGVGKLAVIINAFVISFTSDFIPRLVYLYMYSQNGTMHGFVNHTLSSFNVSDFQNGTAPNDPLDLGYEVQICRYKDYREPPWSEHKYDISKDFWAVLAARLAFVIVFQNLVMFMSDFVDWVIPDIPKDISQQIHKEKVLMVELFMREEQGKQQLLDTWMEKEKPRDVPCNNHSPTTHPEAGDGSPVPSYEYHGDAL
Assay: Inside-out patch recording of 1PBC block, constitutively active mutant I551A
Format: cell-based
Settings: for remaining activity at 3 µM: 3 µM 1PBC; for remaining activity at 10 µM: 10 µM 1PBC; for remaining activity at 30 µM: 30 µM 1PBC
Experimental: HEK293T cells (ATCC CRL-1573) were maintained in Dulbecco’s modified Eagle’s medium (DMEM; Sigma-Aldrich) supplemented with 10 U ml^−1 penicillin, 0.1 mg ml^−1 streptomycin (Sigma-Aldrich), 2 mM L-glutamine (Sigma-Aldrich), and 10% FBS (Sigma-Aldrich) in a humidified atmosphere containing 5% CO2 at 37 °C. HEK293S GnTI^− cells (ATCC CRL-3022) were maintained in HyClone HyCell TransFx-H medium (GE Healthcare) supplemented with 10 U ml^−1 penicillin, 0.1 mg ml^−1 streptomycin, 4 mM L-glutamine, 0.15% poloxamer 188 (Sigma-Aldrich), and 1% FBS in an atmosphere containing 5% CO2 at 185 rpm at 37 °C. The ac splice variant of mouse TMEM16A (UniProt ID: Q8BHY3), mouse TMEM16B (UniProt ID: Q8CFW1), or mouse TMEM16F (UniProt ID: Q6P9J9) bearing a 3C cleavage site, a Venus YFP, a Myc tag, and a Streptavidin-binding peptide (SBP) downstream of the open reading frame in a modified pcDNA3.1 vector (Invitrogen) were used as described previously[21],[31]. Mutations were introduced using a modified QuikChange method[58] and were verified by sequencing.
HEK293T cells were transfected with 3–4 μg DNA per 6 cm Petri dish using the calcium phosphate co-precipitation method and were used within 24–96 h after transfection. Recordings were performed on inside-out patches excised from HEK293T cells expressing the construct of interest. Patch pipettes were pulled from borosilicate glass capillaries (O.D. 1.5 mm, I.D. 0.86 mm, Sutter Instrument) and were fire-polished with a microforge (Narishige) before use. Pipette resistance was typically 3–8 MΩ when filled with the recording solutions detailed below. Seal resistance was typically 4 GΩ or higher. Voltage-clamp recordings were made using Axopatch 200B, Digidata 1550, and Clampex 10.7 (Molecular Devices). Analog signals were filtered with the in-built 4-pole Bessel filter at 10 kHz and were digitized at 20 kHz. Solution exchange was achieved using a gravity-fed system through a theta glass pipette mounted on an ultra-fast piezo-driven stepper (Siskiyou). […] All recordings were performed at 20 °C.
A symmetrical ionic condition was used throughout. Stock solution with Ca^2+-EGTA contained 150 mM NaCl, 5.99 mM Ca(OH)2, 5 mM EGTA, and 10 mM HEPES at pH 7.40. Stock solution with EGTA contained 150 mM NaCl, 5 mM EGTA, and 10 mM HEPES at pH 7.40. Free Ca^2+ concentrations were adjusted by mixing the stock solutions at the required ratios calculated using the WEBMAXC program (http://web.stanford.edu/~cpatton/webmaxcS.htm). Patch pipettes were filled with the stock solution with Ca^2+-EGTA, which has a free Ca^2+ concentration of 1 mM. 1PBC (ChemBridge) stock was reconstituted in anhydrous DMSO (Sigma-Aldrich) at 100 mM and stored at −20 °C. Working solutions with 1PBC were prepared by serial dilution. Unless otherwise stated, experiments were performed at a saturating Ca^2+ concentration as shown in Supplementary Table 1 and the primary data were corrected for current rundown as described previously[21],[25].
Concentration-response relations, obtained from the ratio of the I-V plots before and after the application of the blocker, were fitted to the Hill equation,1 I/Imax=1/1+IC50/[blocker]^h where I/Imax is the normalized current responses, IC50 defines the concentration at which inhibition is at its half-maximum, and h is the Hill coefficient.

[1] = 0 mV, 2 µM Ca2+, read-out: I/Imax
[2] = 0 mV, zero Ca2+, read-out: I/Imax

Structure (SMILES): N#Cc1c(C(F)(F)F)cc(O)n2c1nc1ccccc12 [1PBC]
- I/Imax_+80mV (0Ca, 3 μM 1PBC): 0.9297
- I/Imax_-80mV (0Ca, 3 μM 1PBC): 0.9659
- I/Imax_+80mV (0Ca, 10 μM 1PBC): 0.7725
- I/Imax_-80mV (0Ca, 10 μM 1PBC): 0.8504
- I/Imax_+80mV (0Ca, 30 μM 1PBC): 0.5277
- I/Imax_-80mV (0Ca, 30 μM 1PBC): 0.6475
- I/Imax_+80mV (0Ca, 100 μM 1PBC): 0.2921
- I/Imax_-80mV (0Ca, 100 μM 1PBC): 0.3933
- remaining activity at 1 µM (1 µM 1PBC, 0 mV, 2 µM Ca2+, read-out: I/Imax): 80.9%
- remaining activity at 3 µM [1]: 60.1%
- remaining activity at 3 µM [2]: 93.2%
- remaining activity at 10 µM [1]: 31.1%
- remaining activity at 10 µM [2]: 80.6%
- remaining activity at 30 µM [1]: 14.8%
- remaining activity at 30 µM [2]: 58.2%
- remaining activity at 100 µM (100 µM 1PBC, 0 mV, zero Ca2+, read-out: I/Imax): 33.3%
- I/Imax_+80mV (Ca, 1 μM 1PBC): 0.7719
- I/Imax_-80mV (Ca, 1 μM 1PBC): 0.9016
- I/Imax_+80mV (Ca, 3 μM 1PBC): 0.5347
- I/Imax_-80mV (Ca, 3 μM 1PBC): 0.7407
- I/Imax_+80mV (Ca, 10 μM 1PBC): 0.2656
- I/Imax_-80mV (Ca, 10 μM 1PBC): 0.4452
- I/Imax_+80mV (Ca, 30 μM 1PBC): 0.1169
- I/Imax_-80mV (Ca, 30 μM 1PBC): 0.2272
